According to PMC6691788, “Design and synthesis of phthalazine-based compounds as potent anticancer agents with potential antiangiogenic activity via VEGFR-2 inhibition” (Journal of Enzyme Inhibition and Medicinal Chemistry, 2019):

Assays:
[1] = test system: HL-60(TB); assay: NCI 60 cell panel SRB screen; format: cell-based; conditions: Homo sapiens, single dose 10 μM, read-out: percent cell growth promotion
[2] = test system: NCI-H322M; assay: NCI 60 cell panel SRB screen; format: cell-based; conditions: Homo sapiens, single dose 10 μM, read-out: percent cell growth promotion
[3] = target: T1, VEGFR-2 tyrosine kinase (Homo sapiens, UniProt P35968); assay: In vitro VEGFR-2 tyrosine kinase assay (BPS Bioscience); format: biochemical; conditions: read-out: VEGFR-2 % inhibition; 10 μM concentration
T1 construct: purchased BPS Bioscience 40301
T1 sequence (P35968 20-1356): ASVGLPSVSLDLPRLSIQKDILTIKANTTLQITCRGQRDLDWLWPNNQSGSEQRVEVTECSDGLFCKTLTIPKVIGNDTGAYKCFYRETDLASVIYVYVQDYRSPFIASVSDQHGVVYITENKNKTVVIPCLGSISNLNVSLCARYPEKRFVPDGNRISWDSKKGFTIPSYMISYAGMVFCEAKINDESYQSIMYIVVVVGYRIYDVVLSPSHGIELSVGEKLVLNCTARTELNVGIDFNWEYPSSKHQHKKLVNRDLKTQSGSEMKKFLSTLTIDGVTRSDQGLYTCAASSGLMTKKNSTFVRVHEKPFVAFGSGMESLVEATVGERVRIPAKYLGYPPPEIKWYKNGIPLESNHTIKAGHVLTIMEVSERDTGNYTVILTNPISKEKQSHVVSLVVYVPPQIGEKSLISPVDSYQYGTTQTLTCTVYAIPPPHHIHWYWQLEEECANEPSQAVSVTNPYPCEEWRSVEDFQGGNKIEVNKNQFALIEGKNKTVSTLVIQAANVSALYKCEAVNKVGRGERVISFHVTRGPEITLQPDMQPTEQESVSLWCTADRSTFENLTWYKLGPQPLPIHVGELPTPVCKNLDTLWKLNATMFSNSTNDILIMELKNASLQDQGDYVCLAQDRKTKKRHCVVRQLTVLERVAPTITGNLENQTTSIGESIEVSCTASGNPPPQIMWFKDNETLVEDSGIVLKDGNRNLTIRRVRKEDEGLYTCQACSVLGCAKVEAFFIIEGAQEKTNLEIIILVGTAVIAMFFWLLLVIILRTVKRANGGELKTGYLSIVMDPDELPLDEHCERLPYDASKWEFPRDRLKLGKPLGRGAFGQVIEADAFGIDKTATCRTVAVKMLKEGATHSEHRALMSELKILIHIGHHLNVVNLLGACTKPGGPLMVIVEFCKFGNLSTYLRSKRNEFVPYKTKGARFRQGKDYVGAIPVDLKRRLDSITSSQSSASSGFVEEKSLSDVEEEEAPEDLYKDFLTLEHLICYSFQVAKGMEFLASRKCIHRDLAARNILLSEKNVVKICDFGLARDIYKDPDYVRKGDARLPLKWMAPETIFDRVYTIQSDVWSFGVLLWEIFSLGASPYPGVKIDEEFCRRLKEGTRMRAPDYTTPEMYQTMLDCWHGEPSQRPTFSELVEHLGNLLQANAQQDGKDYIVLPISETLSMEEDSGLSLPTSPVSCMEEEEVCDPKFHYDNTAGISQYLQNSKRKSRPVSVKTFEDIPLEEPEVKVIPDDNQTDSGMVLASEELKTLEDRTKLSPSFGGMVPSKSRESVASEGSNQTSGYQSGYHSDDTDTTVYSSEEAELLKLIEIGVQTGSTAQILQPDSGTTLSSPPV
Summary of the method: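 For IC50, ADP formation after a 30-min 30 °C reaction was detected by ADP-Glo luminescence in duplicate, blank-subtracted and fitted as log inhibitor versus normalised response. The 10 µM single-dose test instead measured remaining ATP (Kinase-Glo Plus) after 40 min at 30 °C with poly(Glu,Tyr) substrate, 10 μM ATP, pH 7.4, 1% DMSO.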

[4] = test system: RPMI-8226; assay: NCI 60 cell panel SRB screen; format: cell-based; conditions: Homo sapiens; RPMI-8226, single dose 10 μM; read-out: percent cell growth promotion
[5] = test system: T-47D; assay: NCI 60 cell panel SRB screen; format: cell-based; conditions: Homo sapiens, T47D, read-out: percent cell growth promotion
[6] = test system: KM12; assay: NCI 60 cell panel SRB screen; format: cell-based; conditions: Homo sapiens; KM12, single dose 10 μM; read-out: percent cell growth promotion
[7] = test system: RXF 393; assay: NCI 60 cell panel SRB screen; format: cell-based; conditions: Homo sapiens; RXF 393, single dose 10 μM; read-out: percent cell growth promotion
[8] = test system: SK-MEL-5; assay: NCI 60 cell panel SRB screen; format: cell-based; conditions: Homo sapiens, SK-MEL-5, read-out: percent cell growth promotion
[9] = test system: CCRF-CEM; assay: NCI 60 cell panel SRB screen; format: cell-based, human; conditions: Homo sapiens, single dose 10 μM, read-out: percent cell growth promotion
[10] = test system: TK-10; assay: NCI 60 cell panel SRB screen; format: cell-based, human; conditions: Homo sapiens; TK-10, single dose 10 μM; read-out: percent cell growth promotion
[11] = test system: HT29; assay: NCI 60 cell panel SRB screen; format: cell-based; conditions: Homo sapiens, HT-29; HT29, single dose 10 μM; read-out: percent cell growth promotion
[12] = test system: NCI-H226; assay: NCI 60 cell panel SRB screen; format: cell-based; conditions: Homo sapiens; NCI-H226, single dose 10 μM; read-out: percent cell growth promotion
[13] = test system: PC-3; assay: NCI 60 cell panel SRB screen; format: cell-based; conditions: Homo sapiens; PC-3, single dose 10 μM; read-out: percent cell growth promotion
[14] = test system: LOX IMVI; assay: NCI 60 cell panel SRB screen; format: cell-based; conditions: Homo sapiens, read-out: percent cell growth promotion
[15] = test system: OVCAR-3; assay: NCI 60 cell panel SRB screen; format: cell-based; conditions: Homo sapiens; OVCAR-3, single dose 10 μM; read-out: percent cell growth promotion
[16] = test system: HCC-2998; assay: NCI 60 cell panel SRB screen; format: cell-based; conditions: Homo sapiens; HCC-2998, single dose 10 μM; read-out: percent cell growth promotion
[17] = test system: NCI-H460; assay: NCI 60 cell panel SRB screen; format: cell-based; conditions: Homo sapiens; NCI-H460, single dose 10 μM; read-out: percent cell growth promotion
[18] = test system: OVCAR-8; assay: NCI 60 cell panel SRB screen; format: cell-based; conditions: Homo sapiens; OVCAR-8, single dose 10 μM; read-out: percent cell growth promotion
[19] = test system: SNB-19; assay: NCI 60 cell panel SRB screen; format: cell-based; conditions: Homo sapiens; SNB-19, single dose 10 μM; read-out: percent cell growth promotion
[20] = test system: SR; assay: NCI 60 cell panel SRB screen; format: cell-based; conditions: Homo sapiens, single dose 10 μM, read-out: percent cell growth promotion

Cc1nnc(N2CCN(c3ccccc3F)CC2)c2ccccc12 [Compound 8h, 1–(4-(2-Fluorophenyl)piperazin-1-yl)-4-methylphthalazine]
activity at 10 µM [1]: 110%
activity at 10 µM [2]: 121%
inhibition at 10 µM [3]: 9%
activity at 10 µM [4]: 101%
activity at 10 µM [5]: 82.3%
activity at 10 µM [6]: 113%
activity at 10 µM [7]: 99.8%
activity at 10 µM [8]: 92.9%
activity at 10 µM [9]: 99.7%
activity at 10 µM [10]: 88.7%
activity at 10 µM [11]: 90%
activity at 10 µM [12]: 90.1%
activity at 10 µM [13]: 99%
activity at 10 µM [14]: 106%
activity at 10 µM [15]: 110%
activity at 10 µM [16]: 101%
activity at 10 µM [17]: 101%
activity at 10 µM [18]: 95.3%
activity at 10 µM [19]: 99.9%
activity at 10 µM [20]: 95.1%
